In US20040254178A1, “Substituted heterocyclic compounds and methods of use” (Amgen Inc., priority 2003, published 2004):

System: LPS induced TNF release
Experiment: Lipopolysaccharide-Activated THP1 Cell TNF Production Assay
Format: cell-based
Conditions: Homo sapiens, THP-1, THP1 cells, 3 h at 37° C., secreted TNF-α read by ECL
Experimental: Lipopolysaccharide-Activated THP1 Cell TNF Production Assay
THP1 cells are resuspended in fresh THP1 media (RPMI 1640, 10% heat-inactivated FBS, 1XPGS, 1XNEAA, plus 30 μM βME) at a concentration of 1E6/mL. One hundred microliters of cells per well are plated in a polystyrene 96-well tissue culture. One microgram per mL of bacterial LPS is prepared in THP1 media and is transferred to the wells. Test compounds are dissolved in 100% DMSO and are serially diluted 3 fold in a polypropylene 96-well microtiter plate (drug plate). HI control and LO control wells contain only DMSO. One microliter of test compound from the drug plate followed by 10 μL of LPS are transferred to the cell plate. The treated cells are induced to synthesize and secrete TNF-α at 37° C. for 3 h. Forty microliters of conditioned media are transferred to a 96-well polypropylene plate containing 110 μL of ECL buffer (50 mM Tris-HCl pH 8.0, 100 mM NaCl, 0.05% Tween 20, 0.05% NaN3 and 1% FBS) supplemented with 0.44 nM MAB610 monoclonal Ab (R&D Systems), 0.34 nM ruthenylated AF210NA polyclonal Ab (R&D Systems) and 44 μg/mL sheep anti-mouse M280 Dynabeads (Dynal). After a 2 h incubation at room temperature with shaking, the reaction is read on the ECL M8 Instrument (IGEN Inc.). A low voltage is applied to the ruthenylated TNF-α immune complexes, which in the presence of TPA (the active component in Origlo), results in a cyclical redox reaction generating light at […]. The amount of secreted TNF-α in the presence of compound compared with that in the presence of DMSO vehicle alone (HI control) is calculated using the formula: % control (POC)=(cpd−average LO)/(average HI−average LO)*100. Data (consisting of POC and inhibitor concentration in μM) is fitted to a 4-parameter equation (y=A+((B−A)/(1+((x/C)^D))), where A is the minimum y (POC) value, B is the maximum y (POC), C is the x (cpd concentration) at the point of inflection and D is the slope factor) using a Levenburg-Marquardt non-linear regression algorithm.

Row | Structure (SMILES) | IC50
1 | Cc1c(C2CCN(C(=O)OCc3ccccc3)CC2)nnc(-c2cccc(C(F)(F)F)c2)c1-c1ccnc(NC(C)c2ccccc2)n1 (stereo not drawn) [4-[4-Methyl-5-[2-(1-phenyl-ethylamino)-pyrimidin-4-yl]-6-(3-trifluoromethylphenyl)-pyridazin-3-yl]-piperidine-1-carboxylic acid benzyl ester] | ≤ 20 µM
2 | Cc1c(C2CCN(C(=O)[C@@H](C)O)CC2)nnc(-c2cccc(C(F)(F)F)c2)c1-c1ccnc(NC(C)c2ccccc2)n1 (stereo in doubt) [2-Hydroxy-1-{4-[4-methyl-5-[2-(1-phenyl-ethylamino)-pyrimidin-4-yl]-6-(3-trifluoromethyl-phenyl)-pyridazin-3-yl]-piperidin-1-yl}-propan-1-one] | ≤ 20 µM
3 | Cc1c(C2CCNCC2)nnc(-c2cccc(C(F)(F)F)c2)c1-c1ccnc(NC(C)c2ccccc2)n1 (stereo not drawn) [{4-[5-Methyl-6-piperidin-4-yl-3-(3-trifluoromethyl-phenyl)-pyridazin-4-yl]-pyrimidin-2-yl}-(1-phenyl-ethyl)-amine] | ≤ 20 µM
